Laboratory results as given in US11147782B1, “GHB formulation and method for its manufacture” (JAZZ PHARMACEUTICALS IRELAND LIMITED, priority 2015, dated 2021).

Tests used:
[1] = Affinity for the exchange site of the anion exchange resin, estimated from pKa; assay type: physicochemical; settings: estimated from pKa relative to other short-chain fatty acids
Text: The affinity can be estimated based on the pKa of GHB (4.44) relative to other short-chain fatty acids for which affinities are known.

[2] = Xyrem solution is 500 mg/mL (42 wt %); solubility limit considerably higher; cited from earlier work

SMILES	affinity relative to chloride on the anion exchange resin [1]	solubility limit in water [2]
O=C(O)O [Bicarbonate]	about 27%	
O=C(O)CCCO [sodium oxybate, Sodium oxybate]		> 500 mg/mL
